# Results from patent US10670605B2, “Cysteine reactive probes and uses thereof” (The Scripps Research Institute, priority 2015, dated 2020).
# Columns and labels:
# Experiment in all cases: Competitive isoTOP-ABPP in situ (fragment-treated cells)
# Type in all cases: cell-based
# [1] = target: cysteines in MDA-MB-231 and Ramos cells (Homo sapiens, UniProt Q8NBS9)
# [2] = target: T1, cysteines in MDA-MB-231 and Ramos cells (Homo sapiens, UniProt A0AVT1)
# T1 sequence (A0AVT1 1-1052): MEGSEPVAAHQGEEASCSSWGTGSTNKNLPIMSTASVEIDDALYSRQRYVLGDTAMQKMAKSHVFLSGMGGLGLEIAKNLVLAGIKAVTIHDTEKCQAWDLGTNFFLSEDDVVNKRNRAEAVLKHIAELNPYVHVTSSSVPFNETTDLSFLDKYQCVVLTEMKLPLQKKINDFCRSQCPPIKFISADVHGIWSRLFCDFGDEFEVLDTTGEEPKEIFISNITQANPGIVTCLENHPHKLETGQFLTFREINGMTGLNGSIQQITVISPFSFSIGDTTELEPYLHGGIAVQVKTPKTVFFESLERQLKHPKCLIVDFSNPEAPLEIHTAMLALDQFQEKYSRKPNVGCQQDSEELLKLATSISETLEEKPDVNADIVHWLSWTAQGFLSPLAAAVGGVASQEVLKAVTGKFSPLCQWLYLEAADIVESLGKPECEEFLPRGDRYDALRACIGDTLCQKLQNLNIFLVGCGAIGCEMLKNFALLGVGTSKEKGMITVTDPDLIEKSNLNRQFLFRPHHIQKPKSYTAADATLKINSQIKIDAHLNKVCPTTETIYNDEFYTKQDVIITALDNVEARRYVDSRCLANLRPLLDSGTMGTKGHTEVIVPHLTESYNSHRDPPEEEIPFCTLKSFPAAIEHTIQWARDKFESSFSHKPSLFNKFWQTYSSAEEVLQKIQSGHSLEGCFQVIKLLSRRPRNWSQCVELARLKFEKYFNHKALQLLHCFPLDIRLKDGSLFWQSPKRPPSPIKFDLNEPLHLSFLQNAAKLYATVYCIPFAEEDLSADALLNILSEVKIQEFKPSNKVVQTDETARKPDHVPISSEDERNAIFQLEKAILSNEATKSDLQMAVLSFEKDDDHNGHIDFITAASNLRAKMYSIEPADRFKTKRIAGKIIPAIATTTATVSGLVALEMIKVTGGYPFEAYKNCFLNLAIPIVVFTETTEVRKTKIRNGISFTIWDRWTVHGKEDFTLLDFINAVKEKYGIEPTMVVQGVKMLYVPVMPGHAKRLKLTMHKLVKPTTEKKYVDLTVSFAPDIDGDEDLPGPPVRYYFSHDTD
# [3] = target: cysteines in MDA-MB-231 and Ramos cells (Homo sapiens, UniProt P45984)
# cysteines in MDA-MB-231 and Ramos cells (Homo sapiens, UniProt P45984), sequence (P45984 whole entry): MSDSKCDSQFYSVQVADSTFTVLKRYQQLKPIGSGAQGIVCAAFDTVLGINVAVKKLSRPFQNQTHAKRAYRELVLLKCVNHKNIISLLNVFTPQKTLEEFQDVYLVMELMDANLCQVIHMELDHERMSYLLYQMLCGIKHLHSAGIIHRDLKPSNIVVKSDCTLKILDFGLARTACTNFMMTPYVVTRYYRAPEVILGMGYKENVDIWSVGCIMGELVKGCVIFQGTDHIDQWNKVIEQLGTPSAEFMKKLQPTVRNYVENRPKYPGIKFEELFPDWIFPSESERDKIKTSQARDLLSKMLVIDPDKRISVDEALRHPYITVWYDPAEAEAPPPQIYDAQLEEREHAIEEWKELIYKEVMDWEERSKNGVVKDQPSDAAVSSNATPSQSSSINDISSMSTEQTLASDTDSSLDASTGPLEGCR
# [4] = target: cysteines in MDA-MB-231 and Ramos cells (Homo sapiens, UniProt P51610)
# cysteines in MDA-MB-231 and Ramos cells (Homo sapiens, UniProt P51610), sequence (P51610 whole entry): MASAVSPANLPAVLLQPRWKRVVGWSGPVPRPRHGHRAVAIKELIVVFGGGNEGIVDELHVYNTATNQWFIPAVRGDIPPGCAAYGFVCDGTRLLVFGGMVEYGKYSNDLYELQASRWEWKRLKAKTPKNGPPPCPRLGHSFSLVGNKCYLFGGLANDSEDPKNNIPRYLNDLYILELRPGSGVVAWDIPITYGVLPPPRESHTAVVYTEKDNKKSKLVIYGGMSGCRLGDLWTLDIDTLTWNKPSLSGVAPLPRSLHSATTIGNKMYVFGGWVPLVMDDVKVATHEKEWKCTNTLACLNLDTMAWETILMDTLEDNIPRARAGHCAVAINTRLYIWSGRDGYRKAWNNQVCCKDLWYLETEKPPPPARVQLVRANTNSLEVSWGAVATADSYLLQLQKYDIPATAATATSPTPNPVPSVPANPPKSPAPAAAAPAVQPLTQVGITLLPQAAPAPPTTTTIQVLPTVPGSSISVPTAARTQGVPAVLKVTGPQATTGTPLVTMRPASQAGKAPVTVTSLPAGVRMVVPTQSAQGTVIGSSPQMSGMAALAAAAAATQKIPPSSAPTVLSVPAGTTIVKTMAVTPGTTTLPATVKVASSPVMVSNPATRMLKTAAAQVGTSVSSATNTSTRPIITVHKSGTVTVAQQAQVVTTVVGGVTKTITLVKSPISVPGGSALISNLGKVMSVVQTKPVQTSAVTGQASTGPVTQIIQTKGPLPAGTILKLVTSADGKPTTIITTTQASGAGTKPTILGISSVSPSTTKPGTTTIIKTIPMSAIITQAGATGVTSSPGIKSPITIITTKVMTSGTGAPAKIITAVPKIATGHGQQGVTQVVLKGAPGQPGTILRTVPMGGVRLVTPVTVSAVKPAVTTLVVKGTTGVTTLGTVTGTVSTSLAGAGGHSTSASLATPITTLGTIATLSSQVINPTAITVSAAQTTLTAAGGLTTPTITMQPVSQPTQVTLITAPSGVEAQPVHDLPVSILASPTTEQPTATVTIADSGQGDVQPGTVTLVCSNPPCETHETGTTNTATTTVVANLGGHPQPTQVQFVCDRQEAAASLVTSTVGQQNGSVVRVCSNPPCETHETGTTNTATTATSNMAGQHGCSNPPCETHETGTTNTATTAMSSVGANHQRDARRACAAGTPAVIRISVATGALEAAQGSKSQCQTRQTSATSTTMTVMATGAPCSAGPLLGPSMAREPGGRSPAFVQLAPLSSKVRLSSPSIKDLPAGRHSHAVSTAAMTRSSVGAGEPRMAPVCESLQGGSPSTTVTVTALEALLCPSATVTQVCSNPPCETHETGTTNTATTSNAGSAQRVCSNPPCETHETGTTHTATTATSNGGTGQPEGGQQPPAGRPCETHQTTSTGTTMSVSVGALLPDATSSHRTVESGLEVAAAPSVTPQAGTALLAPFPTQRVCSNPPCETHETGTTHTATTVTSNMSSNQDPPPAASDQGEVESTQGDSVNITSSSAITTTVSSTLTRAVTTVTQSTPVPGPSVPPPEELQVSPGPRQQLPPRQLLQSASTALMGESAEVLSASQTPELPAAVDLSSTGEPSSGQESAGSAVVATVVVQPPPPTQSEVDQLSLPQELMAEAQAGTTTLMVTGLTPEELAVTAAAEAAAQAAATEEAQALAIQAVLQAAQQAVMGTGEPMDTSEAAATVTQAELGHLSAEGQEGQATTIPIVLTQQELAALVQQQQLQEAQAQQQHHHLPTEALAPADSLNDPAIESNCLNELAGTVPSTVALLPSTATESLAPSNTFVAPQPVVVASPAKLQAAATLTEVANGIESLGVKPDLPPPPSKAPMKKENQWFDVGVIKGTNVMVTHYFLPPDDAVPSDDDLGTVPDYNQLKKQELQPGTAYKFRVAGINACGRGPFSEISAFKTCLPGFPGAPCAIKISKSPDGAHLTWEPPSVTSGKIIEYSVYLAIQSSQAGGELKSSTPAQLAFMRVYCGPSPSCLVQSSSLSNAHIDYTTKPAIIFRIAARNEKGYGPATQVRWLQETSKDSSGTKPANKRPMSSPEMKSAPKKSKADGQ
# [5] = target: cysteines in MDA-MB-231 and Ramos cells (Homo sapiens, UniProt Q96N67)
# [6] = target: T2, cysteines in MDA-MB-231 and Ramos cells (Homo sapiens, UniProt Q9NXV6)
# T2 sequence (Q9NXV6 1-580): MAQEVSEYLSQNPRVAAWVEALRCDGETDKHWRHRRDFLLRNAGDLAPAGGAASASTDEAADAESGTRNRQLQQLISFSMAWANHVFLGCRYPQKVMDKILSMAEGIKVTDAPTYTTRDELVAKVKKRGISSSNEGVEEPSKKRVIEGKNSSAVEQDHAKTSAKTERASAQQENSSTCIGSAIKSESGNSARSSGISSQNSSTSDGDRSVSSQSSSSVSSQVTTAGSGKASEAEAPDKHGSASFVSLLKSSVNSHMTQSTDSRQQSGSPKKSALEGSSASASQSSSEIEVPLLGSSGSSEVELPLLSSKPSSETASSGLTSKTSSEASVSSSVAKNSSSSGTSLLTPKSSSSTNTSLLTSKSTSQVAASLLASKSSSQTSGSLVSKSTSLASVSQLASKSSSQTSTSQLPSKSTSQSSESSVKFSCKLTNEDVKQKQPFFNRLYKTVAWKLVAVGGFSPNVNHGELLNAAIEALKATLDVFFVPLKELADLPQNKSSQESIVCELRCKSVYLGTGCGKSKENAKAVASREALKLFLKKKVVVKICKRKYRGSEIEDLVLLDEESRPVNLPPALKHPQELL
# [7] = target: T3, cysteines in MDA-MB-231 and Ramos cells (Homo sapiens, UniProt Q9Y570)
# T3 sequence (Q9Y570 1-386): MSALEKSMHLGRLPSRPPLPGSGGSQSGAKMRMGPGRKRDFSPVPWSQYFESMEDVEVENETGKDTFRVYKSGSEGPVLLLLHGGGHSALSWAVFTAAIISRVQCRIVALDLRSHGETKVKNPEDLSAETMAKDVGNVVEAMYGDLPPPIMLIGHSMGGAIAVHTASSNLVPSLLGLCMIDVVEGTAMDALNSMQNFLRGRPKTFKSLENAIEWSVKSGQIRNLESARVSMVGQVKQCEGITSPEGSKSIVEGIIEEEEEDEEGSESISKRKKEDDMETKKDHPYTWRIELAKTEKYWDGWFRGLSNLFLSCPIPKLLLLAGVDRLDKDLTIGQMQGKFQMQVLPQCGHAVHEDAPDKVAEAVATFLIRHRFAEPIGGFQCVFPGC
# [8] = target: cysteines in MDA-MB-231 and Ramos cells (Homo sapiens, UniProt O15446); settings: 200 μM, insitu, 231
# cysteines in MDA-MB-231 and Ramos cells (Homo sapiens, UniProt O15446), sequence (O15446 whole entry): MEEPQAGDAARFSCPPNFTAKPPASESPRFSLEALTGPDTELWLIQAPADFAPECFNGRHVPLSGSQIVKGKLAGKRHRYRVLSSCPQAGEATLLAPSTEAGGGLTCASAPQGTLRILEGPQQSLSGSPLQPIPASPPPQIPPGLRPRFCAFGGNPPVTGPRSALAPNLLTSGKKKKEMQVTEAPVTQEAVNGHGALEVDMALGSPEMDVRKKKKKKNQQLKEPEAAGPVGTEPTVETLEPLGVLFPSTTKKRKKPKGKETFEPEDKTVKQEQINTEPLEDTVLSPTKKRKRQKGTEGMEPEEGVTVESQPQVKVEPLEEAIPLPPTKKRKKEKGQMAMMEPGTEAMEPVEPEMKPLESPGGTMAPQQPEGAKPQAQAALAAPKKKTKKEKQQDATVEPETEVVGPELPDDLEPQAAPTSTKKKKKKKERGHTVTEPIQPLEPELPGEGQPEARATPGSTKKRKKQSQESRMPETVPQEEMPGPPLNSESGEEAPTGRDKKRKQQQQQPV
# [9] = target: cysteines in MDA-MB-231 and Ramos cells (Homo sapiens, UniProt P46109); settings: 200 μM, insitu
# cysteines in MDA-MB-231 and Ramos cells (Homo sapiens, UniProt P46109), sequence (P46109 whole entry): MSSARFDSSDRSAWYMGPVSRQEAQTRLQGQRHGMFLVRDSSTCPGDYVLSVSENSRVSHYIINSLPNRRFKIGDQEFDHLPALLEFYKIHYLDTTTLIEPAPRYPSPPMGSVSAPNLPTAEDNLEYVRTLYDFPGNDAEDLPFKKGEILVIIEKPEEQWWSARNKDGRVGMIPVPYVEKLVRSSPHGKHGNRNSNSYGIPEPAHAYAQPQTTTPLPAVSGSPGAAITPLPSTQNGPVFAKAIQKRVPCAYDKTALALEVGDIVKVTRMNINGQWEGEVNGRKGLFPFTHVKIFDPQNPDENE
# [10] = target: T4, cysteines in MDA-MB-231 and Ramos cells (Homo sapiens, UniProt Q9NTX5)
# T4 sequence (Q9NTX5 1-307): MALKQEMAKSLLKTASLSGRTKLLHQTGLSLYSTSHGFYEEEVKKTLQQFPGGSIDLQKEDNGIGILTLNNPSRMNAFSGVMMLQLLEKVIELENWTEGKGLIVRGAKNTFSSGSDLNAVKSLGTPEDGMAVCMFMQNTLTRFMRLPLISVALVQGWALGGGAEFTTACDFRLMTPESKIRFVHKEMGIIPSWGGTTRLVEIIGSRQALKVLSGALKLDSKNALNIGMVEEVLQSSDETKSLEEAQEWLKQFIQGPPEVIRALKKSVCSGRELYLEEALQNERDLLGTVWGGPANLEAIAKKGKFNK
# cysteines in MDA-MB-231 and Ramos cells (Homo sapiens, UniProt Q8NBS9), sequence (Q8NBS9 33-432): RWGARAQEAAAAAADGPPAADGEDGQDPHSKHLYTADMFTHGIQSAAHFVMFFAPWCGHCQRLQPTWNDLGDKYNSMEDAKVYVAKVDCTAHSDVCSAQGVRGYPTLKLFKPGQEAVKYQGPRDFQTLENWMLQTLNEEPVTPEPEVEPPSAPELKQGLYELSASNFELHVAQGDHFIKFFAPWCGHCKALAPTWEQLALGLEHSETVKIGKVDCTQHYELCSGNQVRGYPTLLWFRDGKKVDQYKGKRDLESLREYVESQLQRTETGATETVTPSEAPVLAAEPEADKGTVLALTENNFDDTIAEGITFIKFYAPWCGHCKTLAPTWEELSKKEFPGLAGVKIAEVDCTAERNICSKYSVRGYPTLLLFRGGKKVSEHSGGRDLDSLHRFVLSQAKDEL
smiles,measurement,setting,value
COc1ccccc1OCCNC(=O)CCl [compound 28],isoTOP-ABPP ratio Q8NBS9_C350,"[1]; 200 μM, insitu, 231",1.1
Cc1ccc(C=C(C#N)C(=O)NCCN2CCOCC2)cc1 [compound 41],isoTOP-ABPP ratio A0AVT1_C347,"[2]; 200 μM, insitu, 231",0.6
same,isoTOP-ABPP ratio P45984_C177,"[3]; 200 μM, insitu, 231",0.5
same,isoTOP-ABPP ratio P51610_C1872,"[4]; 200 μM, insitu, 231",0.5
same,isoTOP-ABPP ratio Q8NBS9_C350,"[1]; 200 μM, insitu, 231",0.9
same,isoTOP-ABPP ratio Q96N67_C2125,"[5]; 200 μM, insitu, 231",0.7
same,isoTOP-ABPP ratio Q9NXV6_C516,"[6]; 200 μM, insitu, 231",0.9
same,isoTOP-ABPP ratio Q9Y570_C381,"[7]; 200 μM, insitu, 231",0.2
O=C(CCl)NC(=O)NC12CC3CC(CC(C3)C1)C2 [compound 12],"isoTOP-ABPP ratio, cysteine O15446_C86",[8],3.3
same,isoTOP-ABPP ratio P45984_C177,"[3]; 200 μM, insitu, 231",2.1
same,isoTOP-ABPP ratio P46109_C249,[9]; 231,20.0
same,isoTOP-ABPP ratio Q8NBS9_C350,"[1]; 200 μM, insitu, 231",9.4
same,isoTOP-ABPP ratio Q9NTX5_C133,"[10]; 200 μM, insitu, 231",1.2
same,isoTOP-ABPP ratio Q9NXV6_C516,"[6]; 200 μM, insitu, 231",3.3
O=C(CCl)NCCc1c[nH]c2ccccc12 [compound 13],"isoTOP-ABPP ratio, cysteine A0AVT1_C347","[2]; 200 μM, insitu, 231",1.3
same,"isoTOP-ABPP ratio, cysteine O15446_C86",[8],1.3
same,isoTOP-ABPP ratio P46109_C249,[9]; ramos,1.8
same,"isoTOP-ABPP ratio, cysteine P51610_C1872","[4]; 200 μM, insitu, 231",1.0
same,isoTOP-ABPP ratio Q8NBS9_C350,"[1]; 200 μM, insitu, 231",1.3
same,isoTOP-ABPP ratio Q9NTX5_C133,"[10]; 200 μM, insitu, 231",1.1
same,isoTOP-ABPP ratio Q9NXV6_C516,"[6]; 200 μM, insitu, 231",2.4
same,isoTOP-ABPP ratio Q9NXV6_C516,"[6]; 200 μM, insitu, ramos",1.6
same,"isoTOP-ABPP ratio, cysteine Q9Y570_C381","[7]; 200 μM, insitu, 231",0.9
O=C(CCl)N1CCC(Cc2ccccc2)CC1 [compound 9],isoTOP-ABPP reactivity A0AVT1_C347 UBA6,"[2]; 200 μM, insitu, 231",3.3
same,isoTOP-ABPP reactivity P46109_0249 CRKL,[9]; 231,6.7
same,isoTOP-ABPP reactivity Q8NBS9_C350 TXNDC5,"[1]; 200 μM, insitu, 231",1.7
same,isoTOP-ABPP reactivity Q9NXV6_C516 CDKN2AEP,"[6]; 200 μM, insitu, 231",6.6
same,isoTOP-ABPP reactivity Q9Y570_C381 PPME1,"[7]; 200 μM, insitu, 231",20.0
COc1ccc(C2CC(c3cccs3)=NN2C(=O)CCl)cc1 (centres unmarked) [compound 4],isoTOP-ABPP reactivity A0AVT1_C347 UBA6,[2]; 100 μM in situ 231,20.0
same,isoTOP-ABPP reactivity P45984_C177 MAPK9,[3]; 100 μM in situ 231,12.0
same,isoTOP-ABPP reactivity Q8NBS9_C350 TXNDC5,[1]; 100 μM in situ 231,2.4
same,isoTOP-ABPP reactivity Q96N67_C2125 DOCK7,[5]; 100 μM in situ 231,4.1
same,isoTOP-ABPP reactivity Q9NTX5_C133 ECHDC1,[10]; 100 μM in situ 231,1.7
same,isoTOP-ABPP reactivity Q9Y570_C381 PPME1,[7]; 100 μM in situ 231,1.1
O=C(CCl)NC12CC3CC(CC(C3)C1)C2 [compound 21],"isoTOP-ABPP ratio, cysteine O15446_C86",[8],1.7
same,isoTOP-ABPP ratio P46109_C249,[9]; 231,0.9
same,isoTOP-ABPP ratio Q9NTX5_C133,"[10]; 200 μM, insitu, 231",1.1
same,isoTOP-ABPP ratio Q9NXV6_C516,"[6]; 200 μM, insitu, 231",0.8
Cn1cc(S(=O)(=O)N2CCOCC2)cc1C(=O)NC(=O)CCl [compound 11],"isoTOP-ABPP ratio, cysteine A0AVT1_C347",[2]; 100 μM in situ 231,1.6
same,isoTOP-ABPP ratio P45984_C177,[3]; 100 μM in situ 231,0.9
same,"isoTOP-ABPP ratio, cysteine P51610_C1872",[4]; 100 μM in situ 231,0.5
same,isoTOP-ABPP ratio Q8NBS9_C350,[1]; 100 μM in situ 231,3.4
same,isoTOP-ABPP ratio Q9NTX5_C133,[10]; 100 μM in situ 231,1.0
same,isoTOP-ABPP ratio Q9NXV6_C516,[6]; 100 μM in situ 231,1.0
